Results on 1 compound are retold here after US11807852B2, “Compositions and methods for reactivating latent immunodeficiency virus” (The J. David Gladstone Institutes, a testamentary trust …, priority 2014, dated 2023).

In data set [1] the test system is latent HIV-1 in primary CD4+ T cells. The experiment in a line: Primary T-cell model of HIV latency (Greene model), NL4-3-Luc luciferase. Type of data set: cell-based. The protocol: Peripheral blood mononuclear cells (PBMC) were isolated by Ficoll-Hypaque density gradient centrifugation of buffy coats from HIV-seronegative donors (Blood Centers of the Pacific). PBMCs were immediately processed to isolate CD4^+ T cells. Total CD4^+ T cells were isolated by negative selection, according to manufacturer's protocol, with the EasySep CD4^+ T-cell Enrichment Kit (Stem Cell Technologies). Isolated CD4^+ T cells were cultured in RPMI as described above at a concentration of 1×10^6 cells/ml for 24 h before HIV infection.
CD4^+ T cells were counted, collected as pellets by centrifugation at 1500 rpm for 5 min at room temperature, and resuspended in the appropriate volume of concentrated viral NL4-3-Luc supernatant. Typically, 50-200 ng of p24Gag per 4×10^5 CD4^+ T cells were used. Spinoculations with NL4-3-Luc virus were performed in 96-well V-bottom plates with up to […] HLAC or CD4 T cells per well. All spinoculations were performed in volumes of 200 μl or less. Cells and virus were centrifuged at 2000 rpm for 1.5-2 h at room temperature. After spinoculation, cells were pooled and cultured at a concentration of 1×10^6 cells/ml in RPMI 1640 containing 10% FBS and supplemented with 5 μM saquinavir for 3 days to prevent residual spreading infection. Saquinavir was purchased from Sigma.
For reactivation of latent HIV-1 provirus, cells were counted and collected as pellets by centrifugation at 1500 rpm for 10 min. Cells were then plated in 96-well U-bottom plates at concentrations of 1×10^6/200 μl in the presence of the indicated activator. Unless otherwise indicated, cells were cultured either in medium alone or stimulated with 5 μg/ml phytohemagglutinin (PHA) (Sigma), 10 ng/ml TNF-α, anti-CD3+anti-CD28 beads at a ratio of 1:1. SAHA, JQ1 and X2 were tested at the indicated concentrations. Cells were harvested 48 hr after stimulation, washed one time with PBS, and lysed in 60 μl of Cell Lysis Buffer (Promega). After 15 min of lysis, the luciferase activity in cell extracts was quantified with a BD Monolight Luminometer after mixing 20 μl of lysate with 100 μl of substrate (Luciferase Assay System-Promega). Relative light units were normalized to protein content determined by BCA assay (Pierce). Cell survival rates were measured by flow cytometry immediately before lysis.
Since X2 activated HIV from latency in A2 and A72 cell lines, this compound was tested in a primary T-cell model of latency (Lassen, Greene). In this model, CD4+ T cells were infected in a single-round infection with HIV clone NL4-3-Luc to generate a latent infection in vitro. To reactivate latent HIV-1, cells were treated with the indicated compounds or a combination of PHA/IL-2 as a control for maximal activation. X2 in combination with JQ1 reactivated latent HIV-1 at 8-25% of the rate achieved by costimulation with PHA/IL-2 (FIG. 9). X2 in combination with Ingenol 3,20-dibenzoate reactivated latent HIV-1 at 30-85% of the rate achieved by costimulation with PHA/IL-2 (FIG. 10).

Data set [2] concerns J-Lat cells (clone A2: LTR-Tat-IRES-GFP). It is filed as cell-based. How it is done: To test this hypothesis, J-Lat cells (clone A2: LTR-Tat-IRES-GFP) were treated with SMYD2 inhibitors. […] Both cell lines were co-treated with X2 and Ingenol 3,20-dibenzoate (a protein kinase C (PKC) activator), JQ1 (BET-bromodomain inhibitor), or the histone deacetylase (HDAC) inhibitor suberoylanilidehydroxamic acid (SAHA).

The conditions of data set [3]: cited from earlier work.
Data set [4] concerns A2 J-Lat cells, A72 J-Lat cells, and primary CD4+ T cells. As to the kind of experiment: ApoTox-Glo Triplex Assay: viability, cytotoxicity, caspase-3/7. Type of data set: cell-based. The following applies: A2, A72 J-Lat cells and primary CD4+ T cells from 2 blood donors. How it is done:
FIGS. 22A-D provide data showing the viability, cytotoxicity and apoptosis of cells treated with SMYD2 inhibitor X2. ApoTox-Glo™ Triplex Assays (Promega) were performed in AZ391-treated A2 J-Lat cells (A), A72 J-Lat cells (B), and primary CD4^+ T cells from 2 independent blood donors (C) and (D). […] All measurements were repeated at least three times and an average of one experiment of three technical replicates (±SD) is shown.

In another data set the target is SMYD2 (Homo sapiens, UniProt Q9NRG4). As to the kind of experiment: In vitro SMYD2 methylation assay of histone H4. It is filed as biochemical. More on the design: purchased Sigma-Aldrich. The protocol: In vitro Methylation assays were performed as described (Nishioka et al., 2002). For reactions, 2 gtg of histones (isolated from HEK293T cells), recombinant histone 4 (New England Biolabs), synthetic histone 4 as 1-21 and as 15-24 peptides (Cayman Chemical), or synthetic histone H4 as 1-21 with a K20A mutation (GenScript) were incubated with recombinant WT SMYD2 (Sigma-Aldrich) or SMYD2 Y240F (Active Motif) in a buffer containing 50 mM Tris-HCl, pH 9, 0.01% Tween 20, 2 mM DTT and 1.1 μCi of H3-labeled SAM (Perk-in Elmer) overnight at 30° C. Reaction mixtures were fractionated on 15% SDS-PAGE for proteins or on 10-20% Tris-Tricine gradient gels for peptides (BioRad). After Coomassie staining, gels were treated with Amplify. (GE Healthcare) for 30 min, dried and exposed to hyperfilm (GE Healthcare) overnight.

The structures appear in SMILES notation. Entries after “also recorded” stand apart in the source; their conditions may differ.

Sequence of SMYD2 (Q9NRG4 whole entry): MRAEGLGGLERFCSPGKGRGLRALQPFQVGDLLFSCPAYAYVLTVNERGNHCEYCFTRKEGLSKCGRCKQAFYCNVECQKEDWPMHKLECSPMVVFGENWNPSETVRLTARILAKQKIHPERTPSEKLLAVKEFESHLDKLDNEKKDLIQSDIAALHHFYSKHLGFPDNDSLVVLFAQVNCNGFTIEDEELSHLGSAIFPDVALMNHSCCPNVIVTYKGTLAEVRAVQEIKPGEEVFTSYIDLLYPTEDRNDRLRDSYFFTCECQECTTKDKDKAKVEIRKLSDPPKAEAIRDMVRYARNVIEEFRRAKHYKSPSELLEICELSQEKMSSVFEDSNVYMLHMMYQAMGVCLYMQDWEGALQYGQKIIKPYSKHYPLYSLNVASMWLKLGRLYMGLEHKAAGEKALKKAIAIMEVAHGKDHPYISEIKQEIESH

On to `N#Cc1cc(C(=O)NCCCN2CCCC2)cc(-c2ccccc2N2CCN(CCc3c[nH]c4ccccc34)CC2)c1` [AZ391], for which the “reactivation of latent HIV-1 as % of the rate achieved by costimulation with PHA/IL-2” value is 30-85% in data set [1] (in combination with Ingenol 3,20-dibenzoate) and 8-25% in data set [1] (in combination with JQ1). Moreover, the “reactivation of latent HIV-1, synergy” value in data set [1] (with JQ1) and in data set [1] (with ingenol 3,20-dibenzoate) was “synergy” throughout. Also, the “reactivation of latent HIV-1, combination effect” value in data set [1] (with SAHA, listed as X2) was “modest activation; also recorded: minimal synergy”. In addition, the “GFP-expressing cells compared with control-treated cells” value in data set [2] (A2 J-Lat cells) is listed as “up to threefold more GFP-expressing cells than control-treated cells”. Further, the “activation of HIV transcription / reactivation of the HIV-LTR (GFP)” value in data set [2] (A2 J-Lat cells, single agent) is recorded as “activated HIV transcription in a dose-dependent manner”. For the same compound, the cell death entry in data set [2] (at the concentration that effectively activated HIV transcription) is “slight increase in cell death”. The cell permeability result in data set [3] was “cell-permeable”. In addition, the “viability, cytotoxicity and caspase-3/7 activity” value in data set [4] was “reduced cell viability and increased cytotoxicity and caspase-3/7 activity at concentrations above 5 μM; also recorded: did not reduce viability nor increase cytotoxicity and caspase-3/7 activity at concentrations lower than 5 μM”. Also, the “methylation of recombinant human histone H4 by SMYD2” value on SMYD2 (full-length histone H4, 3H-SAM autoradiography) is listed as “inhibited”. Moreover, the “methylation of synthetic histone H4 peptides by SMYD2” value at SMYD2 (peptides aa 1-21 and aa 15-24) is on record as “suppressed”.
